In PMC4858736, “Inhibition of cyclic diadenylate cyclase, DisA, by polyphenols” (Scientific Reports, 2016):

Target: T1, DisA (Bacillus subtilis, UniProt P37573)
T1 sequence (P37573 1-360): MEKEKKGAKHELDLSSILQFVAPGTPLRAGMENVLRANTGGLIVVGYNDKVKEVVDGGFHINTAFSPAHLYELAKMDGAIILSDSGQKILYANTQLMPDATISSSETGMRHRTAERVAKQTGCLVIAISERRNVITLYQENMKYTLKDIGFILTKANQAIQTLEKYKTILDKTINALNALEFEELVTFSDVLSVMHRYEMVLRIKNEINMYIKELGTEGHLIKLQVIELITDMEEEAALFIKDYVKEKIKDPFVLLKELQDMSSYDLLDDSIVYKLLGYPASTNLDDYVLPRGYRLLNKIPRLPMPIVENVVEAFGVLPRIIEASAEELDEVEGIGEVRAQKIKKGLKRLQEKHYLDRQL
Test: […]-ATP TLC diadenylate cyclase assay with purified DisA; HPLC and coralyne assays
Format: biochemical

IC50: 23.6 µM
Compound: O=C(O[C@@H]1Cc2c(O)cc(O)cc2O[C@@H]1c1cc(O)c(O)c2c(=O)c(O)cc([C@H]3Oc4cc(O)cc(O)c4C[C@H]3O)cc12)c1cc(O)c(O)c(O)c1 [TF2B, theaflavin-3′-gallate]
